This is an account of results in patent US4161523A, “Rosamicin esters, acid addition salts and methods for production thereof” (priority 1974, dated 1979).

Converted amounts (≈) assume the structure as drawn. Structures can show the parent of a compound that is named as a salt. Where two headings read alike, the source gives them in different places.

For data set [1], the system named is Bacillus subtilis ATCC 6633. The data set is described as follows: Cylinder cup assay (bioassay potency). The following applies: for potency (bioassay): reference standard assigned 1000 mcg/mg. It is filed as cell-based. How it is done:
The assay technique employed is a cylinder cup assay using Bacillus subtilis ATCC 6633 as the test organism.
The physical conditions of the assay consist of a base layer of 21 ml. and a seed layer of 4 ml. of Antibiotic Medium No. 5. A standard curve is plotted using the following concentrations of antibiotic ([…]) in 0.1 M phosphate buffer (pH 8.0): 0.64, 0.8, 1.0, 1.25, and 1.56. […] The test procedure and the test medium is substantially that described for erythromycin in Assay Methods of Antibiotics, D. C. Grove and W. A. Randall, Medical Encyclopedia Inc., New York, New York (1955) pp. 96-103.

For the next data set, the system named is Streptococcus pyogenes. The data set is described as follows: In vitro activity, tube dilution (MIC), Streptococcus pyogenes. Type of data set: cell-based. The following applies: 7 strains; yeast beef broth pH 7.4, 18 h, 37° C.; read-out: MIC (Minimal Inhibitory Concentration), range. The protocol:
(§1) The in vitro activity of Antibiotic 67-694 is ascertained by conventional tube dilution procedures using yeast beef broth medium at pH 7.4. The tubes are incubated for 18 hours at 37° C. prior to being observed.

The next data set concerns Enterococcus sp. The experiment in a line: In vitro activity, tube dilution (MIC), Enterococcus sp. The conditions noted are these: 2 strains; yeast beef broth pH 7.4, 18 h, 37° C.; read-out: MIC (Minimal Inhibitory Concentration), range. It is filed as cell-based. How it is done: as §1
A further data set deals with Streptococcus pyogenes C. The experiment in a line: Protective activity in mice, Streptococcus pyogenes C infection. It is filed as in vivo, male CF-1 (Carworth Farms) mice. The conditions noted are these: two doses, survival 48 hours after infection, read-out: PD50. How it is done: (§2) The protective activity and the acute toxicity of Antibiotic 67-694 is tested in male CF-1 (Carworth Farms) mice weighing approximately 20 gms. each. For protection, the antibiotic is given as a suspension or a solution in an aqueous vehicle containing 0.5% carboxy methyl cellulose (CMC) in two doses; one shortly before and one 4 hours after intraperitoneal infection with the bacteria. Infected and non-treated mice (controls) generally die within 18 hours. Survival rate in the treated group is determined 48 hours after infection.
(§3) The acute toxicity of Antibiotic 67-694 is measured in the standard manner by administering the antibiotic by a variety of routes and determining the LD50 by standard procedures. The results of in vivo tests using a representative gram-positive and a representative gram negative organism are set forth in Tables X and Xi below: […]

The test system of a further data set is α-amylase. The experiment in a line: Stability to α-amylase. The following applies: α-amylase 1 mg./ml. pH 4, 37° C., 24 hours; disc assay E. coli and S. aureus. Type of data set: in vitro ADME. How it is done: (§4) Antiobiotic 67-694 has been tested for stability against trypsin, chymotrypsin, pepsin, and α-amylase. Solutions of the enzymes were prepared at 1 mg./ml. in McIlvaines buffers at the optimal pH for the enzyme (i.e. trypsin and chymotrypsin pH 8; pepsin, pH 2.2; and α-amylase pH 4). Two hundred (200) mcg. of antibiotic was dissolved in 0.5 ml. of water, mixed with 0.5 ml. of enzyme solution and incubated at 37° C. for 24 hours. The solutions were disc assayed against Escherichia coli and Staphylococcus aureus after 0, 1, 2.5 and 24 hours incubation.

Data set [2] relates to Salmonella schottmuelleri. The data set is described as follows: In vitro activity, tube dilution (MIC), Salmonella schottmuelleri. Type of data set: cell-based. The conditions noted are these: 3 strains; yeast beef broth pH 7.4, 18 h, 37° C.; read-out: MIC (Minimal Inhibitory Concentration), range. How it is done: as §1
The conditions of data set [3]: U.S. Pat. No. 3,767,793, cited from earlier work.
The next data set has as its system pepsin. The data set is described as follows: Stability to pepsin. Type of data set: in vitro ADME. The following applies: pepsin 1 mg./ml. pH 2.2, 37° C., 24 hours; disc assay E. coli and S. aureus. The protocol:
as §4

Another data set can be described thus: Acute toxicity in mice. Also noted: species or system male CF-1 (Carworth Farms) mice. The following applies: mouse, in vivo. The protocol: as §2, §3
The next data set deals with Escherichia coli. The experiment in a line: In vitro activity, tube dilution (MIC), Escherichia coli. The following applies: 3 strains; yeast beef broth pH 7.4, 18 h, 37° C.; read-out: MIC (Minimal Inhibitory Concentration), range. Type of data set: cell-based. The protocol:
as §1

For data set [4] the following is noted: in 66% dimethylformamide; data from U.S. Pat. No. 3,767,793; cited from earlier work.
The nature of a further data set: pKa. It is filed as physicochemical.
The next data set concerns Diplococcus Pneumoniae. The experiment in a line: In vitro activity, tube dilution (MIC), Diplococcus Pneumoniae. Type of data set: cell-based. The conditions noted are these: 3 strains; yeast beef broth pH 7.4, 18 h, 37° C.; read-out: MIC (Minimal Inhibitory Concentration), range. How it is done: as §1
A further data set deals with chymotrypsin. The experiment in a line: Stability to chymotrypsin. The conditions noted are these: chymotrypsin 1 mg./ml. pH 8, 37° C., 24 hours; disc assay E. coli and S. aureus. It is filed as in vitro ADME. The protocol:
as §4

The next data set has as its system Proteus sp. The data set is described as follows: In vitro activity, tube dilution (MIC), Proteus sp. It is filed as cell-based. The following applies: 3 strains; yeast beef broth pH 7.4, 18 h, 37° C.; read-out: MIC (Minimal Inhibitory Concentration), range. How it is done:
as §1

The test system of another data set is Staphylococcus aureus. The data set is described as follows: In vitro activity, tube dilution (MIC), Staphylococcus aureus. It is filed as cell-based. The following applies: 6 strains; yeast beef broth pH 7.4, 18 h, 37° C.; read-out: MIC (Minimal Inhibitory Concentration), range. The protocol:
as §1

Data set [5] relates to Staphylococcus aureus gray. The data set is described as follows: Protective activity in mice, Staphylococcus aureus gray infection. The following applies: two doses, survival 48 hours after infection, read-out: PD50. Type of data set: in vivo, male CF-1 (Carworth Farms) mice. The protocol: as §2, §3
Another data set relates to trypsin. The data set is described as follows: Stability to trypsin. It is filed as in vitro ADME. The conditions noted are these: trypsin 1 mg./ml. pH 8, 37° C., 24 hours; disc assay E. coli and S. aureus. The protocol:
as §4

For a further data set, the system named is gram-positive bacteria. The data set is described as follows: Antibacterial activity, general statements. It is filed as cell-based. How it is done:
as §1

The next data set concerns Aerobacter aerogenes. The data set is described as follows: In vitro activity, tube dilution (MIC), Aerobacter aerogenes. It is filed as cell-based. The following applies: 3 strains; yeast beef broth pH 7.4, 18 h, 37° C.; read-out: MIC (Minimal Inhibitory Concentration), range. The protocol:
as §1

The next data set relates to Klebsiella pneumoniae. The data set is described as follows: In vitro activity, tube dilution (MIC), Klebsiella pneumoniae. It is filed as cell-based. The following applies: 4 strains; yeast beef broth pH 7.4, 18 h, 37° C.; read-out: MIC (Minimal Inhibitory Concentration), range. The protocol: as §1
A further data set relates to Pseudomonas aeruginosa. The data set is described as follows: In vitro activity, tube dilution (MIC), Pseudomonas aeruginosa. It is filed as cell-based. The following applies: 4 strains; yeast beef broth pH 7.4, 18 h, 37° C.; read-out: MIC (Minimal Inhibitory Concentration), range. How it is done:
as §1

The next data set is described as follows: Solubility. Type of data set: physicochemical. The following applies: U.S. Pharmacopea, 17th revision. An excerpt:
^a) According to U.S. Pharmacopea, 17th revision (1965) pg. 8

Turning to `CCC(=O)OC1C(OC2C(CC=O)CC(C)C(=O)C=CC3(C)OC3C(C)C(CC)OC(=O)CC(O)C2C)OC(C)CC1N(C)C` (centres unmarked) [Antibiotic 67-694 2'-Propionate Phosphate Salt], in data set [1] (Phosphate Salt), the “potency (bioassay)” value came out at 915 µg/mg.
Regarding `CCCCCCCCCCCCCCCCCC(=O)OC1C(OC2C(CC=O)CC(C)C(=O)C=CC3(C)OC3C(C)C(CC)OC(=O)CC(O)C2C)OC(C)CC1N(C)C` (centres unmarked) [Antibiotic 67-694 2'-stearate, Antibiotic 67-694 2'-Stearate], the “potency (bioassay)” value in [1] turned out to be 585 µg/mg.
On to `CCC1OC(=O)CC(O)C(C)C(OC2OC(C)CC(N(C)C)C2O)C(CC=O)CC(C)C(=O)C=CC2(C)OC2C1C` (centres unmarked) [Antibiotic 67-694], for which the MIC with Streptococcus pyogenes was 0.75 to 3 µg/mL (≈ 1.29 to 5.16 µM); in the data set with Enterococcus sp., 0.03 µg/mL (≈ 0.0516 µM); in data set [2], 0.3 to 3 µg/mL (≈ 0.516 to 5.16 µM); in the data set on Escherichia coli, 3 µg/mL (≈ 5.16 µM); in the data set on Diplococcus Pneumoniae it was 0.03 to 0.08 µg/mL (≈ 0.0516 to 0.138 µM); in the data set with Proteus sp. it was 0.3 µg/mL (≈ 0.516 µM). Besides, the MIC in the data set on Staphylococcus aureus fell in the range of 0.03 to 3 µg/mL (≈ 0.0516 to 5.16 µM); in the data set with Aerobacter aerogenes, 0.75 to 7.5 µg/mL (≈ 1.29 to 12.9 µM); with Klebsiella pneumoniae, 0.3 to 3 µg/mL (≈ 0.516 to 5.16 µM); in the data set with Pseudomonas aeruginosa, 0.75 to 3 µg/mL (≈ 1.29 to 5.16 µM). Further, the ED50 in the data set on Streptococcus pyogenes C (Oral) was found to be 200 mg/kg; in the data set with Streptococcus pyogenes C (sc, Subcutaneous), 50 mg/kg; in data set [5] (oral), 200 mg/kg; in data set [5] (sc, Subcutaneous), 50 mg/kg. Moreover, the “Stability to enzymes: loss in activity” value in the data set with α-amylase, in the data set with pepsin, in the data set on chymotrypsin and with trypsin was “no substantial loss in activity” throughout. Moreover, the Solubilities result is reported as “Soluble” in data set [3] (benzene, chloroform, ethyl acetate, dimethylformamide, ethanol or an aqueous acid solution) and “Insoluble” in data set [3] (petroleum ether, n-hexane or a neutral water). In addition, the LD50 (commonly the dose expected to kill half of the subjects tested) in the data set “Acute toxicity in mice” (ip, Intraperitoneal) worked out at 350 mg/kg; in the data set “Acute toxicity in mice” (sc, Subcutaneous) it was 625 mg/kg; in “Acute toxicity in mice” (Intravenous) it was 155 mg/kg. The values for the pKa (in data set [4]; in “pKa”) were 8.4 and 8.7, respectively. In data set [1] (purified by silicic acid column, Example 4), the “potency (assaying units per mg)” value was “about 1,000 units per mg”. Moreover, in the data set on gram-positive bacteria, the “antibacterial activity / spectrum (in words)” value is “broad antibacterial spectrum in vitro with a greater effect upon gram-positive bacteria”. Further, the Solubility entry in the data set “Solubility” (Acetone) is listed as “Very soluble”; in “Solubility” (Benzene), “Very soluble”; in the data set “Solubility” (Chloroform) it was “Very soluble”; in the data set “Solubility” (Ether) it was “Sparingly soluble”; in “Solubility” (Methanol), “Very soluble”; in the data set “Solubility” (Water), “Slightly soluble”.
